For orientation: logP means a log measure of how a compound divides between an organic and an aqueous phase.

Where only a bound is given, the exact number is not on record here.

Results on seven molecules are retold here after ChEMBL document CHEMBL1145322, “Synthesis and anthelmintic activity of substituted (R)-phenyllactic acid containing cyclohexadepsipeptides” (Bioorg Med Chem Lett, 2006).

Data set [1] in a line: Partition coefficient, log P of the compound. Type of data set: physicochemical. The note with it: octanol/water.
The subject of data set [2] is Haemonchus contortus. The data set is described as follows: Anthelmintic activity against Haemonchus contortus in infected sheep assessed as reduction in faecal egg at 0.05 mg/kg, po. Type of data set: functional, Feces. Details: scale not given: the % may be the effect or the level left.
Data set [3] has as its system Haemonchus contortus. The data set is described as follows: Anthelmintic activity against Haemonchus contortus in infected sheep assessed as reduction in faecal egg at 0.10 mg/kg, po. The format is functional, Feces. Details: scale not given: the % may be the effect or the level left. The note with it: dose 0.1 mg/kg.
For data set [4], the system named is Haemonchus contortus. The data set is described as follows: Anthelmintic activity against Haemonchus contortus in infected sheep assessed as reduction in faecal egg at 0.25 mg/kg, po. The format is functional, Feces. Details: scale not given: the % may be the effect or the level left.

On to `CC[C@@H](C)[C@H]1C(=O)O[C@H](Cc2cccc(N)c2)C(=O)N(C)[C@@H]([C@H](C)CC)C(=O)O[C@H](C)C(=O)N(C)[C@@H](C)C(=O)O[C@H](C)C(=O)N1C`, for which the logP in data set [1] worked out at 2.35. Besides, the Activity result with Haemonchus contortus [2] is “>=95%”.

Regarding `CC[C@@H](C)[C@H]1C(=O)O[C@H](Cc2ccc(N3CCOCC3)cc2)C(=O)N(C)[C@@H]([C@H](C)CC)C(=O)O[C@H](C)C(=O)N(C)[C@@H](C)C(=O)O[C@H](C)C(=O)N1C`, the Activity entry in the data set with Haemonchus contortus [3] is “>=95%”. Also, the logP in data set [1] is 3.58.

`CCC(C)[C@H]1C(=O)O[C@H](C)C(=O)N(C)[C@@H](C)C(=O)O[C@H](C)C(=O)N(C)[C@@H](C(C)CC)C(=O)O[C@H](C)C(=O)N1C` (stereo partly drawn): the logP in data set [1] came to 3.26. Besides, in the data set on Haemonchus contortus [2], the Activity entry was “>=95%”.

In the case of `CC[C@@H](C)[C@H]1C(=O)O[C@H](Cc2ccc(N)cc2)C(=O)N(C)[C@@H]([C@H](C)CC)C(=O)O[C@H](C)C(=O)N(C)[C@@H](C)C(=O)O[C@H](C)C(=O)N1C`, the Activity in the data set on Haemonchus contortus [3] stood at 50%. In addition, the logP in data set [1] is 2.08.

Molecule `CC[C@@H](C)[C@H]1C(=O)O[C@H](Cc2ccccc2)C(=O)N(C)[C@@H]([C@H](C)CC)C(=O)O[C@H](C)C(=O)N(C)[C@@H](C)C(=O)O[C@H](C)C(=O)N1C` registered a logP in data set [1] of 4.23. Moreover, in the data set with Haemonchus contortus [4], the Activity entry is listed as “<=50%”.

In data set [1], `CC[C@@H](C)[C@H]1C(=O)O[C@H](Cc2ccccc2N)C(=O)N(C)[C@@H]([C@H](C)CC)C(=O)O[C@H](C)C(=O)N(C)[C@@H](C)C(=O)O[C@H](C)C(=O)N1C` yielded a logP of 3.18. Also, the Activity entry in the data set with Haemonchus contortus [2] is given as “>=95%”.

For `CC[C@@H](C)[C@H]1C(=O)O[C@H](Cc2ccc([N+](=O)[O-])cc2)C(=O)N(C)[C@@H]([C@H](C)CC)C(=O)O[C@H](C)C(=O)N(C)[C@@H](C)C(=O)O[C@H](C)C(=O)N1C`, the Activity in the data set with Haemonchus contortus [3] was 50%.
